Results as given in US20240382629A1, “HETEROBIVALENT AND HOMOBIVALENT AGENTS TARGETING FIBROBLAST ACTIVATION PROTEIN ALPHA AND/OR PROSTATE-SPECIFIC MEMBRANE ANTIGEN” (The Johns Hopkins University, priority 2021, published 2024).
Where “and” joins values, the source holds several entries; their conditions need not be identical. Equal values may be shown once.

Assay: Biodistribution of [^18F]JHU122047 with UAMC-01110 blocker
Format: in vivo, mouse
[1] = + Blocker UAMC-01110, 1 hr post injection, mean
[2] = + Vehicle, 1 hr post injection, mean
[3] = individual mouse, NOD/SCID, 120 min
[4] = individual mouse, NUDE, 120 min
[5] = mean (one sample; gamma counter error), NOD/SCID, 120 min

For N#C[C@@H]1CCCN1C(=O)CNC(=O)c1ccnc2ccc(OCCF)cc12 [[^18F]JHU122047], the “% ID/g Mean Bladder” value [1] was 2.10 % ID/g, the “% ID/g Mean Bladder” value [2] was 1.13 % ID/g and the “% ID/g Mean Blood” value (Blood, + Blocker UAMC-01110, 1 hr post injection, mean) was 0.12 % ID/g. For the same molecule, the “% ID/g Mean Blood” value (Blood, + Vehicle, 1 hr post injection, mean) was 0.36 % ID/g, the “% ID/g Blood” value (Blood, + Vehicle, 1 hr post injection, single mouse) was 0.38 % ID/g and 0.34 % ID/g and the “% ID/g Mean Brain” value [1] was 0.19 % ID/g. For the same molecule, the “% ID/g Mean Brain” value [2] was 0.14 % ID/g, the “% ID/g Mean Fat” value [1] was 0.08 % ID/g and the “% ID/g Mean Fat” value [2] was 0.11 % ID/g. The “% ID/g Mean Heart” value (Heart, + Blocker UAMC-01110, 1 hr post injection, mean) was 0.38 % ID/g, the “% ID/g Mean Heart” value (Heart, + Vehicle, 1 hr post injection, mean) was 0.35 % ID/g and the “% ID/g Heart” value (Heart, + Vehicle, 1 hr post injection, single mouse) was 0.35 % ID/g. For the same molecule, the “% ID/g Mean Kidney” value [1] was 0.60 % ID/g, the “% ID/g Mean Kidney” value [2] was 1.25 % ID/g and the “% ID/g Mean Large intestine” value [1] was 2.19 % ID/g. For the same molecule, the “% ID/g Mean Large intestine” value [2] was 0.99 % ID/g, the “% ID/g Mean Liver” value (Liver, + Blocker UAMC-01110, 1 hr post injection, mean) was 0.66 % ID/g and the “% ID/g Mean Liver” value (Liver, + Vehicle, 1 hr post injection, mean) was 0.68 % ID/g. For the same molecule, the “% ID/g Liver” value (Liver, + Vehicle, 1 hr post injection, single mouse) was 0.67 % ID/g, the “% ID/g Mean Lung” value (Lung, + Blocker UAMC-01110, 1 hr post injection, mean) was 0.33 % ID/g and the “% ID/g Mean Lung” value (Lung, + Vehicle, 1 hr post injection, mean) was 0.36 % ID/g. The “% ID/g Lung” value (Lung, + Vehicle, 1 hr post injection, single mouse) was 0.34 % ID/g and 0.37 % ID/g, the “% ID/g Mean Muscle” value [1] was 0.27 % ID/g and the “% ID/g Mean Muscle” value [2] was 0.34 % ID/g. The “% ID/g Mean Pancreas” value [1] was 0.23 % ID/g, the “% ID/g Mean Pancreas” value [2] was 0.33 % ID/g and the “% ID/g Mean Salivary gland” value [1] was 0.28 % ID/g. The “% ID/g Mean Salivary gland” value [2] was 0.58 % ID/g, the “% ID/g Mean Small intestine” value [1] was 8.53 % ID/g and the “% ID/g Mean Small intestine” value [2] was 2.48 % ID/g. For the same molecule, the “% ID/g Mean Spleen” value [1] was 0.28 % ID/g, the “% ID/g Mean Spleen” value [2] was 0.26 % ID/g and the “% ID/g Mean Stomach” value [1] was 0.50 % ID/g. For the same molecule, the “% ID/g Mean Stomach” value [2] was 0.32 % ID/g, the “% ID/g Mean Tumor” value [1] was 0.45 % ID/g and the “% ID/g Mean Tumor” value [2] was 1.96 % ID/g. For the same molecule, the “Bladder % ID/g” value (individual mouse) was 12.70 % ID/g and 11.31 % ID/g, the “Brain % ID/g” value (individual mouse) was 0.02 % ID/g and 0.08 % ID/g and the “Fat % ID/g” value (individual mouse) was 0.07 % ID/g and 0.10 % ID/g. The “Femur % ID/g” value (individual mouse) was 0.87 % ID/g and 0.43 % ID/g, the “Kidney % ID/g” value (individual mouse) was 1.61 % ID/g and 1.54 % ID/g and the “Large intestine % ID/g” value (individual mouse) was 0.18 % ID/g and 0.19 % ID/g. The “Liver % ID/g” value (individual mouse) was 1.74 % ID/g and 1.65 % ID/g, the “Muscle % ID/g” value (individual mouse) was 0.07 % ID/g and 0.12 % ID/g and the “Pancreas % ID/g” value (individual mouse) was 0.07 % ID/g and 0.19 % ID/g. The “Salivary gland % ID/g” value (individual mouse) was 0.12 % ID/g and 0.14 % ID/g, the “Small intestine % ID/g” value (individual mouse) was 0.48 % ID/g and 0.45 % ID/g and the “Spleen % ID/g” value (individual mouse) was 0.10 % ID/g and 0.15 % ID/g. The “Stomach % ID/g” value (individual mouse) was 0.18 % ID/g and 0.17 % ID/g, the “Tumor % ID/g” value (individual mouse) was 0.21 % ID/g and 0.23 % ID/g and the “Bladder % ID/g” value [3] was 3.86 % ID/g. The “Blood % ID/g” value [3] was 0.40 % ID/g and 0.47 % ID/g, the “Brain % ID/g” value [3] was 0.04 % ID/g and the “Fat % ID/g” value [3] was 0.09 % ID/g and 0.18 % ID/g. The “Femur % ID/g” value [3] was 1.59 % ID/g, the “Heart % ID/g” value [3] was 0.20 % ID/g and 0.29 % ID/g and the “Kidney % ID/g” value [3] was 1.51 % ID/g and 1.58 % ID/g. For the same molecule, the “Large intestine % ID/g” value [3] was 0.30 % ID/g and 0.45 % ID/g, the “Liver % ID/g” value [3] was 1.11 % ID/g and 0.88 % ID/g and the “Lung % ID/g” value [3] was 0.36 % ID/g and 0.57 % ID/g. For the same molecule, the “Muscle % ID/g” value [3] was 0.25 % ID/g and 0.35 % ID/g, the “Pancreas % ID/g” value [3] was 0.38 % ID/g and 0.77 % ID/g and the “Salivary gland % ID/g” value [3] was 0.74 % ID/g and 0.62 % ID/g. The “Small intestine % ID/g” value [3] was 0.38 % ID/g and 0.95 % ID/g, the “Spleen % ID/g” value [3] was 0.26 % ID/g and 0.36 % ID/g and the “Stomach % ID/g” value [3] was 0.22 % ID/g and 0.35 % ID/g. For the same molecule, the “Tumor % ID/g” value [3] was 3.13 % ID/g, the “Bladder % ID/g” value [4] was 1.31 % ID/g and 1.80 % ID/g and the “Blood % ID/g” value [4] was 0.66 % ID/g and 0.56 % ID/g. For the same molecule, the “Brain % ID/g” value [4] was 0.05 % ID/g and 0.06 % ID/g, the “Fat % ID/g” value [4] was 0.13 % ID/g and 0.10 % ID/g and the “Femur % ID/g” value [4] was 2.27 % ID/g and 2.55 % ID/g. For the same molecule, the “Heart % ID/g” value [4] was 0.34 % ID/g and 0.28 % ID/g, the “Kidney % ID/g” value [4] was 1.50 % ID/g and 1.43 % ID/g and the “Large intestine % ID/g” value [4] was 0.34 % ID/g and 0.41 % ID/g. The “Liver % ID/g” value [4] was 0.45 % ID/g and 0.42 % ID/g, the “Lung % ID/g” value [4] was 0.49 % ID/g and 0.56 % ID/g and the “Muscle % ID/g” value [4] was 0.49 % ID/g and 0.45 % ID/g. The “Pancreas % ID/g” value [4] was 0.53 % ID/g and 0.34 % ID/g, the “Salivary gland % ID/g” value [4] was 1.02 % ID/g and 0.78 % ID/g and the “Small intestine % ID/g” value [4] was 0.35 % ID/g and 0.31 % ID/g. For the same molecule, the “Spleen % ID/g” value [4] was 0.22 % ID/g, the “Stomach % ID/g” value [4] was 0.27 % ID/g and 0.25 % ID/g and the “Tumor % ID/g” value [4] was 2.65 % ID/g and 3.51 % ID/g. The “Bladder % ID/g” value (mean) was 12.01 % ID/g, the “Brain % ID/g” value (mean) was 0.02 % ID/g and the “Fat % ID/g” value (mean) was 0.08 % ID/g. The “Femur % ID/g” value (mean) was 0.40 % ID/g, the “Kidney % ID/g” value (mean) was 1.57 % ID/g and the “Large intestine % ID/g” value (mean) was 0.18 % ID/g. For the same molecule, the “Liver % ID/g” value (mean) was 1.70 % ID/g, the “Lung % ID/g” value (mean) was 0.38 % ID/g and the “Muscle % ID/g” value (mean) was 0.09 % ID/g. For the same molecule, the “Pancreas % ID/g” value (mean) was 0.10 % ID/g, the “Salivary gland % ID/g” value (mean) was 0.13 % ID/g and the “Small intestine % ID/g” value (mean) was 0.47 % ID/g. The “Spleen % ID/g” value (mean) was 0.13 % ID/g, the “Stomach % ID/g” value (mean) was 0.17 % ID/g and the “Tumor % ID/g” value (mean) was 0.22 % ID/g. The “Bladder % ID/g” value [5] was 3.86 % ID/g, the “Femur % ID/g” value [5] was 1.59 % ID/g and the “Tumor % ID/g” value [5] was 3.13 % ID/g. For the same molecule, the “Blood % ID/g” value (mean, NOD/SCID, 120 min) was 0.43 % ID/g, the “Brain % ID/g” value (mean, NOD/SCID, 120 min) was 0.04 % ID/g and the “Fat % ID/g” value (mean, NOD/SCID, 120 min) was 0.11 % ID/g. For the same molecule, the “Heart % ID/g” value (mean, NOD/SCID, 120 min) was 0.24 % ID/g, the “Kidney % ID/g” value (mean, NOD/SCID, 120 min) was 1.55 % ID/g and the “Large intestine % ID/g” value (mean, NOD/SCID, 120 min) was 0.37 % ID/g. For the same molecule, the “Liver % ID/g” value (mean, NOD/SCID, 120 min) was 1.00 % ID/g, the “Lung % ID/g” value (mean, NOD/SCID, 120 min) was 0.47 % ID/g and the “Muscle % ID/g” value (mean, NOD/SCID, 120 min) was 0.30 % ID/g. For the same molecule, the “Pancreas % ID/g” value (mean, NOD/SCID, 120 min) was 0.57 % ID/g, the “Salivary gland % ID/g” value (mean, NOD/SCID, 120 min) was 0.58 % ID/g and the “Small intestine % ID/g” value (mean, NOD/SCID, 120 min) was 0.67 % ID/g. For the same molecule, the “Spleen % ID/g” value (mean, NOD/SCID, 120 min) was 0.31 % ID/g, the “Stomach % ID/g” value (mean, NOD/SCID, 120 min) was 0.28 % ID/g and the “Bladder % ID/g” value (mean, NUDE, 120 min) was 1.55 % ID/g. For the same molecule, the “Blood % ID/g” value (mean, NUDE, 120 min) was 0.61 % ID/g, the “Brain % ID/g” value (mean, NUDE, 120 min) was 0.06 % ID/g and the “Fat % ID/g” value (mean, NUDE, 120 min) was 0.12 % ID/g. For the same molecule, the “Femur % ID/g” value (mean, NUDE, 120 min) was 2.41 % ID/g, the “Heart % ID/g” value (mean, NUDE, 120 min) was 0.31 % ID/g and the “Kidney % ID/g” value (mean, NUDE, 120 min) was 1.46 % ID/g. The “Large intestine % ID/g” value (mean, NUDE, 120 min) was 0.37 % ID/g, the “Liver % ID/g” value (mean, NUDE, 120 min) was 0.44 % ID/g and the “Lung % ID/g” value (mean, NUDE, 120 min) was 0.53 % ID/g. The “Muscle % ID/g” value (mean, NUDE, 120 min) was 0.47 % ID/g, the “Pancreas % ID/g” value (mean, NUDE, 120 min) was 0.43 % ID/g and the “Salivary gland % ID/g” value (mean, NUDE, 120 min) was 0.90 % ID/g. The “Small intestine % ID/g” value (mean, NUDE, 120 min) was 0.33 % ID/g, the “Spleen % ID/g” value (mean, NUDE, 120 min) was 0.22 % ID/g and the “Stomach % ID/g” value (mean, NUDE, 120 min) was 0.26 % ID/g. The “Tumor % ID/g” value (mean, NUDE, 120 min) was 3.08 % ID/g.
